Key:
[1] = tested on: FADD−/− Jurkat cells; assay: Necroptosis inhibition assay, TNF-α-induced necroptosis (CellTiter-Glo 2.0); format: cell-based, human; conditions: TNF-α 15 ng/mL; for Necroptosis inhibition assay (Rescue %) 1 μM: compound 1 μM; for Necroptosis inhibition assay (Rescue %) 10 μM: compound 10 μM
Procedure, shortened: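 Luminescent ATP measurement gave viability, from which cytotoxicity and necroptosis inhibition rate were derived. Before that, cells (5.0×10^5 cells/mL) saw compound at 0.1, 1 or 10 μM final for 30 minutes at room temperature, then TNF-α (15 ng/mL final) for 20 to 24 hours at 37° C.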

[2] = molecular target: T1, MLKL (Homo sapiens, UniProt Q8NB16); assay: MLKL degradation assay in HepG2 cell line (western blot); format: cell-based; design: endogenous in cells; host or cells: HepG2 or HaCaT; conditions: cell line not given; for Degradation assay (Degradation %) 1 μM: compound 1 μM; for Degradation assay (Degradation %) 10 μM: compound 10 μM
T1 sequence (Q8NB16 1-471): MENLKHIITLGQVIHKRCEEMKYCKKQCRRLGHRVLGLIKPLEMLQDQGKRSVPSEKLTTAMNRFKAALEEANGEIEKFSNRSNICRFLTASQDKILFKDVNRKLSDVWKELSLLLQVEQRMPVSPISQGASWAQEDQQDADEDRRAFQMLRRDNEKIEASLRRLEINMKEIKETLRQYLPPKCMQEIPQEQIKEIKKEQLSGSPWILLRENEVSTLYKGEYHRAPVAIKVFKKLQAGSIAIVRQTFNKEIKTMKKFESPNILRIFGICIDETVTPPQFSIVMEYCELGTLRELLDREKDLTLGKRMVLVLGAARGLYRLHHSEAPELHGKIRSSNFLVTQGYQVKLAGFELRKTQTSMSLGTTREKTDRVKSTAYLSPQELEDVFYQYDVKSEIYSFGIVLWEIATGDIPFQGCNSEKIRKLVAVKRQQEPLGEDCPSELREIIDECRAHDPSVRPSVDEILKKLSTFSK
Procedure: MLKL degradation ability was evaluated in the following method.
1 mL of Human liver cancer cell line (HepG2 cell line) or human skin cell line (HaCaT cell line) was equally distributed into each well at 2.0×10^5 cells/mL in a 12-well cell culture plate. On the next day, the medium was replaced with a medium made so that the final concentration of test compound was 1 or 10 μM (1 mL/well), and incubated in 5% CO2, at 37° C. for 20-24 hours (Thermo scientific, Forma steri-cycle).
For protein preparation after incubation, cells were washed with 1×TBST, and 60 μL of RIPA lysis buffer containing Halt™ Protease and Phosphatase Inhibitor Cocktail was dispensed into each well. After scraping the cells with a scraper, the cells were recovered, and the pallet was homogenized and reacted on ice for 30 minutes. After the cells were centrifuged at 13,000 rpm, 10 minutes, 4° C., the supernatant was transferred to a new E-tube. For protein quantification, after dispensing sample and BCA (0-4 mg/ml) in a 96 well plate, 100 μL of BCA was dispensed and reacted in a 37° C. incubator for 30 minutes. After measuring the absorbance (SpectraMax, M5e, 562 nm), the amount of the sample was adjusted with the same concentration of protein and 4× Laemmli sample buffer, DW, and reacted at 100° C. for 5 minutes.
After assembling the MP TGX Precast Gel in the Mini-PROTEAN Tetra Cell, the same protein (10-15 μg) was added in an 8-10 μL volume per well, 1×Tris-Glycine Buffer was added, and loading was performed. After loading was completed, transfer was performed using Pierce G2 Fast Blotter and Pierce 1-Step Transfer Buffer. After completion of the transfer, 10 ml of SuperBlock™ Blocking Buffer was dispensed and reacted at room temperature for 10 minutes. 5% BSA containing the primary antibody was dispensed and reacted over night at 4° C. The next day, washing was performed three times with 1×TBST at room temperature for 10 minutes. 5% BSA containing the secondary antibody was dispensed and reacted at room temperature for 1 hour. Washing was performed three times with 1×TBST at room temperature for 10 minutes. The amount of protein expression was measured using chemiluminescence (LuminoGraph, ATTO).

[3] = molecular target: T1, MLKL; assay: Measurement of binding affinity with MLKL receptor (competitive binding assay, Kd); design: made in house; host or cells: HEK 293 cell line (T7 phage in E. coli BL21-derived host is also described)
Procedure, shortened: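 Competitive displacement of MLKL, expressed in HEK 293 cells and DNA-tagged for qPCR, from immobilized ligand on biotin-blocked beads. Compounds were added from 111× DMSO stocks (final DMSO 0.9%). Kinase left in the eluates was quantified by qPCR to give Kd.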

SMILES	Necroptosis inhibition assay (Rescue %) 1 μM [1] [%]	Necroptosis inhibition assay (Rescue %) 10 μM [1] [%]	Degradation assay (Degradation %) 1 μM [2] [%]	Degradation assay (Degradation %) 10 μM [2] [%]	Kd [3] [nM]
Nc1ncc(-c2cnn(C3CCN(CCCCCCNC(=O)C4CN(c5cccc6c5C(=O)N(C5CCC(=O)NC5=O)C6=O)C4)CC3)c2)nc1C(=O)O[C@@H](C(=O)Nc1ccc(F)cc1)c1ccccc1 (stereo partly drawn) [TDH-113, (R)-2-((4-fluorophenyl)amino)-2-oxo-1-phenylethyl 3-amino-6-(1-(1-(6-(1-(2-(2,6-dioxopiperidin-3-yl)-1,3-dioxoisoindolin-4-yl)azetidine-3-carboxamido)hexyl)piperidin-4-yl)-1H-pyrazol-4-yl)pyrazine-2-carboxylate]	24.96	5.16	24.54	19.24	2.3
Nc1ncc(-c2cnn(C3CCN(CCCCCCNC(=O)C4CN(c5ccc6c(c5)C(=O)N(C5CCC(=O)NC5=O)C6=O)C4)CC3)c2)nc1C(=O)O[C@@H](C(=O)Nc1ccc(F)cc1)c1ccccc1 (stereo partly drawn) [TDH-114, (R)-2-((4-fluorophenyl)amino)-2-oxo-1-phenylethyl 3-amino-6-(1-(1-(6-(1-(2-(2,6-dioxopiperidin-3-yl)-1,3-dioxoisoindolin-5-yl)azetidine-3-carboxamido)hexyl)piperidin-4-yl)-1H-pyrazol-4-yl)pyrazine-2-carboxylate]	13.68	38.3	8.68	62.79	0.83
Nc1ncc(-c2cnn(C3CCN(CCOCCOCCNC(=O)C4CN(c5cccc6c5C(=O)N(C5CCC(=O)NC5=O)C6=O)C4)CC3)c2)nc1C(=O)O[C@@H](C(=O)Nc1ccc(F)cc1)c1ccccc1 (stereo partly drawn) [TDH-115, (R)-2-((4-fluorophenyl)amino)-2-oxo-1-phenylethyl 3-amino-6-(1-(1-(2-(2-(2-(1-(2-(2,6-dioxopiperidin-3-yl)-1,3-dioxoisoindolin-4-yl)azetidine-3-carboxamido)ethoxy)ethoxy)ethyl)piperidin-4-yl)-1H-pyrazol-4-yl)pyrazine-2-carboxylate]	12.42	3.59	10.31	24.21	6.3
Nc1ncc(-c2cnn(C3CCN(C(=O)CCCCCNC(=O)CNc4cccc5c4C(=O)N(C4CCC(=O)NC4=O)C5=O)CC3)c2)nc1C(=O)O[C@@H](C(=O)Nc1ccc(F)cc1)c1ccccc1 (stereo partly drawn) [TDH-124, (R)-2-((4-fluorophenyl)amino)-2-oxo-1-phenylethyl 3-amino-6-(1-(1-(6-(2-((2-(2,6-dioxopiperidin-3-yl)-1,3-dioxoisoindolin-4-yl)amino)acetamido)hexanoyl)piperidin-4-yl)-1H-pyrazol-4-yl)pyrazine-2-carboxylate]	21.88	27.22		8.02	12
Nc1ncc(-c2cnn(C3CCN(CCOCCNC(=O)CNc4ccc5c(c4)C(=O)N(C4CCC(=O)NC4=O)C5=O)CC3)c2)nc1C(=O)O[C@@H](C(=O)Nc1ccc(F)cc1)c1ccccc1 (stereo partly drawn) [TDH-125, (R)-2-((4-fluorophenyl)amino)-2-oxo-1-phenylethyl 3-amino-6-(1-(1-(2-(2-(2-((2-(2,6-dioxopiperidin-3-yl)-1,3-dioxoisoindolin-5-yl)amino)acetamido)ethoxy)ethyl)piperidin-4-yl)-1H-pyrazol-4-yl)pyrazine-2-carboxylate]	21.27	54.55	30.1	69.02	3.2
